Structures are written as SMILES.

One data set deals with Salmonella Typhimurium TA100 strain. The note with it: 1 µM; TA100; alert ≥ 2.0. The method, then:
Safety profiles were evaluated using an in vitro microbiological method adapted to the microplate Ames test (384-well microtitration plate), which applies Salmonella enterica serovar Typhimurium bacterial strains (the gold standard in mutagenicity research). The experiment was performed according to a previously described protocol, which is provided in the Supplementary Materials. Briefly, the TA 100 strain (deprived of the ability to synthesize the histidine) was incubated with each tested compound in an exposure medium containing a limited amount of histidine. The reversion events were counted both manually and by means of a microplate reader. Each fold increase bigger than two times the baseline level (≥2.0-fold) was considered to indicate a mutagen alert. The experiments and data analyses were prepared according to the procedure that was previously described by Flückiger-Isler et al.. The assay was performed in triplicate. The positive control selected for the mutagenicity assays was NQNO, which causes genome point mutations; specifically, it promotes G:C → A:T transitions in the Salmonella Typhimurium TA-100 strain and other bacteria such as Vibrio harveyi and Escherichia coli.
In the next step of the studies, the in vitro safety profiles of the tested selenocompounds were evaluated. All compounds were tested with the 384-well plate microfluctuation Ames test. The mutagenic index (MI) was used as the measure of mutagenicity.
1.5. Safety profile evaluation - Ames microplate mutagenicity assay
Safety profile was evaluated by the means of in vitro microbiological methods – adapted to microplate Ames test, which applies Salmonella enterica serovar Typhimurium bacterial strains (the gold standard in mutagenicity research).
1.5.1. Compounds preparation
To evaluate the impact of tested compounds and of references on Salmonella enterica serovar Typhimurium (onwards Salmonella Typhimurium) TA-100 strain growth by means of the Ames test, the compounds or the reference were dissolved in the pure DMSO, to obtain the corresponding 10 mM stock solutions. Working solutions for tested compounds (25 μM and 250 μM concentrations) were prepared before the assay in DMSO.
1.5.2. Microplate Ames mutagenicity assay protocol
Prior to the experiment, Salmonella Typhimurium was cultured overnight (NB-2 liq-uid medium in the presence of 25 μg/mL ampicillin). At the day of the experiment, fresh dilutions of the tested compounds (25 μM and 250 μM), reference compound (methylse-leninic acid) and standard mutagen (4-nitroquinoline-N-oxide at 2.5 μM and 12.5 μM) in DMSO were prepared. The positive control selected for the mutagenicity assays was NQNO, which causes point mutations at the genome. Specifically, it promotes G:C → A:T transitions in Salmonella Typhimurium TA-100 strain and in the other bacteria such as Vib-rio harveyi and Escherichia coli.
The mutagenic potential of the tested derivatives was evaluated by the incubation of the abovementioned bacteria (deprived of the ability to synthesize the histidine) with spe-cific concentrations of the tested compounds (for 90 min in the exposure medium), con-taining a limited amount of histidine (enough to provide approximately 2-3 cell divisions).
The occurrence of reversion events to histidine prototrophy was observed through the bacterial growth in the indicator medium without histidine after 48 h of incubation in temperature of 37° C [45]. The final compound and the mutagenic agent concentrations in each single well of a 384 well plate were 1 μM and 10 μM for the compounds; and 0.1 μM and 0.5 μM for the mutagen. Lastly, both a manual count and a microplate reader were used to obtain the results. The medium control baseline (MCB) was estimated as the mean number of revertants in the medium control plus one standard deviation. Each fold in-crease bigger than two times the baseline level ≥ 2.0 was considered as a mutagen alert.
For `C[Se](=O)O` [MetSeAc, methylseleninic acid, reference compound], the “Fold Increase over Baseline” value is recorded as 0.75.

Take `COc1cccc2c1C(=O)c1c(O)c3c(c(O)c1C2=O)C[C@@](O)(C(=O)CO)C[C@@H]3O[C@H]1C[C@H](N)[C@H](O)[C@H](C)O1` [DOXO, doxorubicin, reference compound]: the “Fold Increase over Baseline” value is listed as 1.31.

The data set is the same for the next values; noted with them: 1 µM; TA100; mutagenic if MI ≥ 2.
`C[Se](=O)O` [MetSeAc, methylseleninic acid, reference compound]: the “MI (mutagenic index)” value is reported as 0.90.

`COc1cccc2c1C(=O)c1c(O)c3c(c(O)c1C2=O)C[C@@](O)(C(=O)CO)C[C@@H]3O[C@H]1C[C@H](N)[C@H](O)[C@H](C)O1` [DOXO, doxorubicin, reference compound]: the “MI (mutagenic index)” value is reported as 1.64.

The data set is the same for the next values; noted with them: 1 µM; TA100; threshold ≥ 0.99.
Regarding `C[Se](=O)O` [MetSeAc, methylseleninic acid, reference compound], the “B (binomial B value)” value was determined as 0.37.

Turning to `COc1cccc2c1C(=O)c1c(O)c3c(c(O)c1C2=O)C[C@@](O)(C(=O)CO)C[C@@H]3O[C@H]1C[C@H](N)[C@H](O)[C@H](C)O1` [DOXO, doxorubicin, reference compound], the “B (binomial B value)” value was determined as 1.00.

The same data set, now with this note: 10 µM; TA100; alert ≥ 2.0.
Consider `C[Se](=O)O` [MetSeAc, methylseleninic acid, reference compound], for which the “Fold Increase over Baseline” value turned out to be 0.74.

For the molecule `COc1cccc2c1C(=O)c1c(O)c3c(c(O)c1C2=O)C[C@@](O)(C(=O)CO)C[C@@H]3O[C@H]1C[C@H](N)[C@H](O)[C@H](C)O1` [DOXO, doxorubicin, reference compound], the “Fold Increase over Baseline” value turned out to be 0.77.

Staying with this data set, now noted: 10 µM; TA100; mutagenic if MI ≥ 2.
As to `C[Se](=O)O` [MetSeAc, methylseleninic acid, reference compound], the “MI (mutagenic index)” value stood at 0.96.

As for `COc1cccc2c1C(=O)c1c(O)c3c(c(O)c1C2=O)C[C@@](O)(C(=O)CO)C[C@@H]3O[C@H]1C[C@H](N)[C@H](O)[C@H](C)O1` [DOXO, doxorubicin, reference compound], the “MI (mutagenic index)” value is given as 0.95.

Still in this data set, the particulars now being: 10 µM; TA100; threshold ≥ 0.99.
Regarding `C[Se](=O)O` [MetSeAc, methylseleninic acid, reference compound], the “B (binomial B value)” value is reported as 0.47.

As to `COc1cccc2c1C(=O)c1c(O)c3c(c(O)c1C2=O)C[C@@](O)(C(=O)CO)C[C@@H]3O[C@H]1C[C@H](N)[C@H](O)[C@H](C)O1` [DOXO, doxorubicin, reference compound], the “B (binomial B value)” value was 0.46.

System in a further data set: not given
More on the design: method as in PMID 28245633. The note with it: known selenocompounds; cited from earlier work.
`C[Se]CC[C@H](N)C(=O)O` [selenomethionine]: the permeability is 12.4%.

For `N[C@@H](C[Se][Se]C[C@H](N)C(=O)O)C(=O)O` [selenocystine], the permeability is on record as 3.1%.

In the case of `C[Se]C1O[C@H](CO)[C@H](O)[C@H](O)[C@H]1NC(C)=O` (stereo partly shown) [Se-methylseleno-N-acetylgalactosamine], the permeability was 2.9%.

Take `N[C@@H](CC[Se]CC[C@H](N)C(=O)O)C(=O)O` [L-selenohomolanthionine]: the permeability is reported as 2.5%.

The values are drawn from PMC8875489, “Pharmaceutical and Safety Profile Evaluation of Novel Selenocompounds with Noteworthy Anticancer Activity” (Pharmaceutics, 2022).
